Test results published in patent US20090233975A1, “Hair resiliency/body improver and hair cosmetic” (priority 2005, published 2009).

Test system: KAP5.1 gene
Assay: KAP5.1 reporter assay (dual luciferase, pGL3-KAP5.1 in IORS cells)
Assay type: cell-based, human
Conditions: overnight culture, negative control K-SFM(−) = 100
Protocol: A DNA fragment of about 15 kb containing KAP5.1 gene and KAP5.2 gene was amplified by PCR using an NM-F1 primer (SEQ ID NO. 6), in which the recognition sites of restriction endonuclease NotI and MluI were added to the 5′-terminal thereof, and an R2 primer (SEQ ID NO. 7), and using commercially available human genomic DNA (obtained from Promega) as the template (FIG. 1-A).
The amplified DNA fragment was double-digested with restriction endonucleases MluI and NheI, and a DNA fragment of about 4.9 kb was recovered following separation by agarose gel electrophoresis. This DNA fragment was cloned between the MluI and NheI sites of reporter vector pGL-3basic (obtained from Promega) having a gene that encodes firefly luciferase (FIG. 1-B). Reporter plasmid pGL-3-KAP5.1 containing the 5′ upstream region (SEQ ID NO. 8) of KAP5.1 was then constructed by subcloning [Step 1: subcloning of SacI/NcoI fragment (154 bp, FIG. 2) to pGL-3basic; Step 2: insertion of ScaI fragment (about 4.0 kbp, FIG. 2) into resulting plasmid] (FIG. 2).
8×10^5 immortalized outer root sheath (IORS) cells (obtained in accordance with Japanese Unexamined Patent Publication (Kokai) No. 2000-89) were seeded into a 75 cm^2 flask and cultured for 6 days under conditions of 37° C. and 5% CO2. Keratinocyte-SFM medium (Gibco) was used as the medium.
Day 1: Plasmid DNA Transfection (transient). The cultured IORS cells were dually transformed with the previously constructed reporter plasmid pGL3-KAP5.1 (firefly luciferase) and commercially available internal standard plasmid pRL-TK (renilla luciferase) in accordance with the manual provided with Effectene Transfection Reagent (Qiagen).
Day 2: The transformed cells were re-seeded into in a 24-well multiwell plate at 10 to 16×10^4 cells per well and cultured overnight under conditions of 37° C. and 5% CO2.
Day 3: The medium in each well was replaced with a basal medium in which each drug was dissolved followed by culturing overnight under conditions of 37° C. and 5% CO2.
Day 4: Assay. Luciferase activity was assayed for each well using the Dual-Luciferase Reporter Assay System (Promega) in accordance with the manual provided by the manufacturer. The AutoLumat LB953 (Berthold) was used for the luminometer.
An assay was carried out under the same conditions with the exception of not containing drug as a negative control [K-SFM(−)]. The effect of increasing gene expression are represented in the form of the rate of increase (ratio based on a value of 100 for the negative control).

Row | Structure (SMILES) | Rate of Increase (KAP5.1 gene expression, ratio based on a value of 100 for the negative control) (10 ppm drug) | Rate of Increase (KAP5.1 gene expression, ratio based on a value of 100 for the negative control) (100 ppm drug) | Rate of Increase (KAP5.1 gene expression, ratio based on a value of 100 for the negative control) (300 ppm drug)
1 | CC(=O)Nc1nc(C)cs1 [2-acetamido-4-methylthiazole] | 110 | 150 | 
2 | CC(=O)Nc1nccs1 [2-acetamidothiazole] | 130 | 180 | 
3 | Nc1nccs1 [2-aminothiazole] | 110 | 140 | 
4 | CC(=O)Nc1cc(C)on1 [3-acetamido-5-methylisoxazole] | 100 | 110 | 125
5 | Cc1cc(N)no1 [3-amino-5-methylisoxazole] | 120 | 140 | 160
